From the NIST ThermoML archive (doi:10.1016/j.tca.2013.05.015) come the findings set out here.

SMILES strings stand for the structures. ± gives the expanded uncertainty stated by the source.

The conditions of this data set: 101.33 kPa, Liquid; for speed of sound: Sing-around technique in a fixed-path interferometer; for mass density: Vibrating tube method.

For `CCO` [ethanol], the speed of sound (usually how fast a sound wave travels through the sample) came out at 1149 ± 10 m/s (298.15 K), 1128 ± 10 m/s (303.15 K), 1098 ± 10 m/s (308.15 K) and 1086 ± 10 m/s (313.15 K). For the same molecule, the mass density – broadly, mass per unit of volume – reads like this: (298.15 K) 785.7 ± 2 kg/m3; (303.15 K) 782 ± 2 kg/m3; (308.15 K) 777.7 ± 2 kg/m3; (313.15 K) 773.6 ± 2 kg/m3.
For the molecule `CCOC(C)=O` [ethyl acetate], the speed of sound (298.15 K) came to 1141 ± 10 m/s, the speed of sound (303.15 K) is reported as 1118 ± 10 m/s, the speed of sound (308.15 K) was determined as 1096 ± 10 m/s and the speed of sound (313.15 K) is 1073 ± 10 m/s. For the same molecule, the mass density runs as follows: (298.15 K) 894.4 ± 2 kg/m3; (303.15 K) 888.5 ± 2 kg/m3; (308.15 K) 882.7 ± 2 kg/m3; (313.15 K) 876.3 ± 2 kg/m3.
